Assay results published in patent publication US9204653B2, “5-fluoro pyrimidine derivatives” (DOW AGROSCIENCES LLC, priority 2008, dated 2015).
Like-named read-outs stand apart in the source and are kept apart here.

System: Mycosphaerella graminicola; Anamorph: Septoria tritici; Bayer Code SEPTTR
Test: Leaf blotch of wheat, foliar fungicide treatment, one day protectant (1DP) or three day curative (3DC)
Assay type: in vivo, Septoria tritici on wheat plants (variety Yuma)
Details: Zymoseptoria tritici; for pest or weed control at 50 ppm / pest or weed control at 200 ppm: % disease control rating
[1] = 24 h, one day protectant (1DP), 25 ppm, rating of percent disease control, read-out: SETTTR 1DP 25 ppm
[2] = 24 h, one day protectant (1DP), rating of percent disease control, read-out: SEPTTR 1DP 100 ppm
[3] = 72 h, three day curative (3DC), 25 ppm, rating of percent disease control, read-out: SEPTTR 3DC 25 ppm
[4] = 72 h, three day curative (3DC), rating of percent disease control, read-out: SEPTTR 3DC 100 ppm
[5] = 24 h, one day protectant (1DP), 25 ppm, percent disease control rating, read-out: SETTTR 1DP 25 ppm
[6] = 24 h, one day protectant (1DP), percent disease control rating, read-out: SEPTTR 1DP 100 ppm
[7] = 72 h, three day curative (3DC), 25 ppm, percent disease control rating, read-out: SEPTTR 3DC 25 ppm
[8] = 72 h, three day curative (3DC), percent disease control rating, read-out: SEPTTR 3DC 100 ppm
[9] = 24 h, one day protectant, 25 ppm, rating of percent disease control, read-out: SETTTR 1DP 25 ppm
[10] = 24 h, one day protectant, rating of percent disease control, read-out: SEPTTR 1DP 100 ppm
[11] = 72 h, three day curative, 25 ppm, rating of percent disease control, read-out: SEPTTR 3DC 25 ppm
[12] = 72 h, three day curative, rating of percent disease control, read-out: SEPTTR 3DC 100 ppm
[13] = 24 h, one day protectant (1DP), 25 ppm (first 1DP column), percent control rating, read-out: SETTTR 1DP 25 ppm
[14] = 24 h, one day protectant (1DP), 25 ppm as printed (second 1DP column), percent control rating, read-out: SETTTR 1DP 25 ppm
[15] = 72 h, three day curative (3DC), 25 ppm, percent control rating, read-out: SEPTTR 3DC 25 ppm
[16] = 72 h, three day curative (3DC), percent control rating, read-out: SEPTTR 3DC 100 ppm

SMILES: N#CNc1nc(OCc2ccc(F)cc2)ncc1F [Compound 451]
- pest or weed control at 25 ppm [1]: 0 to 25%
- pest or weed control at 100 ppm [2]: 0 to 25%
- pest or weed control at 25 ppm [3]: 0 to 25%
- pest or weed control at 100 ppm [4]: 0 to 25%

SMILES: Cn1ccc(COc2ncc(F)c(NC(=O)NCc3ccccc3F)n2)n1 [Compound 64]
- pest or weed control at 25 ppm [5]: 0 to 25%
- pest or weed control at 100 ppm [6]: 0 to 25%
- pest or weed control at 25 ppm [7]: 0 to 25%
- pest or weed control at 100 ppm [8]: 26 to 50%

SMILES: CCCNC(=S)Nc1nc(OCc2ccc(OC)c(F)c2)ncc1F [Compound 552]
- pest or weed control at 25 ppm [9]: 0 to 25%
- pest or weed control at 100 ppm [10]: 76 to 100%
- pest or weed control at 25 ppm [11]: 0 to 25%
- pest or weed control at 100 ppm [12]: 76 to 100%

SMILES: OCNc1nc(OCc2ccc(F)cc2)ncc1F [Compound 17]
- pest or weed control at 25 ppm [5]: 76 to 100%
- pest or weed control at 100 ppm [6]: 76 to 100%
- pest or weed control at 25 ppm [7]: 76 to 100%
- pest or weed control at 100 ppm [8]: 76 to 100%

SMILES: C=CCOc1ncc(F)c(NN)n1 [Compound 1059]
- pest or weed control at 25 ppm [13]: 0 to 25%
- pest or weed control at 25 ppm [14]: 0 to 25%
- pest or weed control at 25 ppm [15]: 0 to 25%
- pest or weed control at 100 ppm [16]: 26 to 50%

SMILES: CN(C)/C=N/c1nc(OCOC(=O)C2CCCC2)ncc1F [Compound 1084]
- pest or weed control at 25 ppm [13]: 76 to 100%
- pest or weed control at 25 ppm [14]: 76 to 100%
- pest or weed control at 25 ppm [15]: 76 to 100%
- pest or weed control at 100 ppm [16]: 76 to 100%

SMILES: Nc1nc(ON=C(C2CC2)C2CC2)ncc1F [Compound 998]
- pest or weed control at 25 ppm [13]: 76 to 100%
- pest or weed control at 25 ppm [14]: 76 to 100%
- pest or weed control at 25 ppm [15]: 76 to 100%
- pest or weed control at 100 ppm [16]: 76 to 100%

SMILES: CC[Si](CC)(CC)Nc1nc(Oc2ccc(OC)cc2)ncc1F [Compound 605]
- pest or weed control at 25 ppm [9]: 51 to 75%
- pest or weed control at 100 ppm [10]: 76 to 100%
- pest or weed control at 25 ppm [11]: 0 to 25%
- pest or weed control at 100 ppm [12]: 76 to 100%

SMILES: COc1ccccc1COc1ncc(F)c(NCOCc2ccccc2)n1 [Compound 354]
- pest or weed control at 25 ppm [1]: 51 to 75%
- pest or weed control at 100 ppm [2]: 76 to 100%
- pest or weed control at 25 ppm [3]: 26 to 50%
- pest or weed control at 100 ppm [4]: 76 to 100%

SMILES: CCC(/C=N/Nc1nc(OC)ncc1F)CC [Compound 1021]
- pest or weed control at 25 ppm [13]: 0 to 25%
- pest or weed control at 25 ppm [14]: 26 to 50%
- pest or weed control at 25 ppm [15]: 26 to 50%
- pest or weed control at 100 ppm [16]: 26 to 50%

SMILES: Oc1ncc(F)c(N/N=C/c2ccccc2Cl)n1 [Compound 322]
- pest or weed control at 25 ppm [1]: 0 to 25%
- pest or weed control at 100 ppm [2]: 0 to 25%
- pest or weed control at 25 ppm [3]: 0 to 25%
- pest or weed control at 100 ppm [4]: 0 to 25%

SMILES: Fc1ccccc1CNc1nc(OCc2ccncc2)ncc1F [Compound 913]
- pest or weed control at 50 ppm (24 h, one day protectant): 76 to 100%
- pest or weed control at 200 ppm (24 h, one day protectant): 76 to 100%

SMILES: O=C(NCc1ccccc1F)Nc1nc(O)ncc1F [Compound 970]
- pest or weed control at 25 ppm [13]: 26 to 50%
- pest or weed control at 25 ppm [14]: 51 to 75%
- pest or weed control at 25 ppm [15]: 26 to 50%
- pest or weed control at 100 ppm [16]: 26 to 50%

SMILES: Nc1nc(OCCc2ccccc2)ncc1F [Compound 936]
- pest or weed control at 50 ppm (24 h, one day protectant): 76 to 100%
- pest or weed control at 200 ppm (24 h, one day protectant): 76 to 100%

SMILES: COc1ncc(F)c(N/N=C/c2ccco2)n1 [Compound 1023]
- pest or weed control at 25 ppm [13]: 0 to 25%
- pest or weed control at 25 ppm [14]: 0 to 25%
- pest or weed control at 25 ppm [15]: 0 to 25%
- pest or weed control at 100 ppm [16]: 0 to 25%

SMILES: CC(=S)Nc1nc(OCc2ccc(F)cc2)ncc1F [Compound 53, N-(5-Fluoro-2-(4-fluorobenzyloxy)pyrimidin-4-yl)ethanethioamide]
- pest or weed control at 25 ppm [5]: 76 to 100%
- pest or weed control at 100 ppm [6]: 76 to 100%
- pest or weed control at 25 ppm [7]: 76 to 100%
- pest or weed control at 100 ppm [8]: 76 to 100%

SMILES: O=C(Cc1ccccc1)Nc1nc(OCc2ccccc2)ncc1F [Compound 792]
- pest or weed control at 25 ppm [1]: 76 to 100%
- pest or weed control at 100 ppm [2]: 76 to 100%
- pest or weed control at 25 ppm [3]: 26 to 50%
- pest or weed control at 100 ppm [4]: 51 to 75%

SMILES: Nc1nc(OCc2ccco2)ncc1F [Compound 409]
- pest or weed control at 25 ppm [1]: 76 to 100%
- pest or weed control at 100 ppm [2]: 76 to 100%
- pest or weed control at 25 ppm [3]: 76 to 100%
- pest or weed control at 100 ppm [4]: 76 to 100%
